Reference: US9796711B2, “Substituted pyrazolo[3,4-b]pyridin-6-carboxylic acids and method of use” (AbbVie S.àr.l., priority 2015, dated 2017)

How the values were obtained:
ΔF508-CFTR [1] = biological target: T1, ΔF508-CFTR (Homo sapiens, UniProt P13569, DEL508-508); experiment: CFTR cell surface levels using HRP-tagged ΔF508-CFTR expressing CFBE cells, in the presence of a co-corrector; assay type: cell-based; conditions: HRP-tagged ΔF508-CFTR expressing CFBE cells, in the presence of 3 μM co-corrector; for EC50: read-out: EC50
T1 construct: host or cells: CFBE41o-, doxycycline-inducible
Outline: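 Cells were seeded with 0.5 μg/mL doxycycline and held 68 h at 37 °C. Test compounds plus 3 μM co-corrector (final 0.1% DMSO) were then added for 20 h at 33 °C. Washed cells received HRP substrate, and luminescence was normalized between DMSO and 3 μM co-corrector controls.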

ΔF508-CFTR [2] = biological target: T1, ΔF508-CFTR; experiment: CFTR cell surface levels using HRP-tagged ΔF508-CFTR expressing CFBE cells, intrinsic corrector capacity; assay type: cell-based; conditions: HRP-tagged ΔF508-CFTR CFBE41o- cells, compounds alone (intrinsic corrector capacity), 20 hours at 33° C.; for % Activation: positive control 3 μM corrector; for EC50: read-out: EC50
Outline: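 Here the cells express ΔF508-CFTR with horseradish peroxidase inserted in extracellular loop 4, so only rescued channel at the surface gives luminescent signal. Compounds act on their own, 20 h at the reduced temperature of 33 °C; values are percent activity relative to DMSO and a 3 μM corrector.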

T1 sequence (P13569 with tags, fused parts or gaps DEL508-508): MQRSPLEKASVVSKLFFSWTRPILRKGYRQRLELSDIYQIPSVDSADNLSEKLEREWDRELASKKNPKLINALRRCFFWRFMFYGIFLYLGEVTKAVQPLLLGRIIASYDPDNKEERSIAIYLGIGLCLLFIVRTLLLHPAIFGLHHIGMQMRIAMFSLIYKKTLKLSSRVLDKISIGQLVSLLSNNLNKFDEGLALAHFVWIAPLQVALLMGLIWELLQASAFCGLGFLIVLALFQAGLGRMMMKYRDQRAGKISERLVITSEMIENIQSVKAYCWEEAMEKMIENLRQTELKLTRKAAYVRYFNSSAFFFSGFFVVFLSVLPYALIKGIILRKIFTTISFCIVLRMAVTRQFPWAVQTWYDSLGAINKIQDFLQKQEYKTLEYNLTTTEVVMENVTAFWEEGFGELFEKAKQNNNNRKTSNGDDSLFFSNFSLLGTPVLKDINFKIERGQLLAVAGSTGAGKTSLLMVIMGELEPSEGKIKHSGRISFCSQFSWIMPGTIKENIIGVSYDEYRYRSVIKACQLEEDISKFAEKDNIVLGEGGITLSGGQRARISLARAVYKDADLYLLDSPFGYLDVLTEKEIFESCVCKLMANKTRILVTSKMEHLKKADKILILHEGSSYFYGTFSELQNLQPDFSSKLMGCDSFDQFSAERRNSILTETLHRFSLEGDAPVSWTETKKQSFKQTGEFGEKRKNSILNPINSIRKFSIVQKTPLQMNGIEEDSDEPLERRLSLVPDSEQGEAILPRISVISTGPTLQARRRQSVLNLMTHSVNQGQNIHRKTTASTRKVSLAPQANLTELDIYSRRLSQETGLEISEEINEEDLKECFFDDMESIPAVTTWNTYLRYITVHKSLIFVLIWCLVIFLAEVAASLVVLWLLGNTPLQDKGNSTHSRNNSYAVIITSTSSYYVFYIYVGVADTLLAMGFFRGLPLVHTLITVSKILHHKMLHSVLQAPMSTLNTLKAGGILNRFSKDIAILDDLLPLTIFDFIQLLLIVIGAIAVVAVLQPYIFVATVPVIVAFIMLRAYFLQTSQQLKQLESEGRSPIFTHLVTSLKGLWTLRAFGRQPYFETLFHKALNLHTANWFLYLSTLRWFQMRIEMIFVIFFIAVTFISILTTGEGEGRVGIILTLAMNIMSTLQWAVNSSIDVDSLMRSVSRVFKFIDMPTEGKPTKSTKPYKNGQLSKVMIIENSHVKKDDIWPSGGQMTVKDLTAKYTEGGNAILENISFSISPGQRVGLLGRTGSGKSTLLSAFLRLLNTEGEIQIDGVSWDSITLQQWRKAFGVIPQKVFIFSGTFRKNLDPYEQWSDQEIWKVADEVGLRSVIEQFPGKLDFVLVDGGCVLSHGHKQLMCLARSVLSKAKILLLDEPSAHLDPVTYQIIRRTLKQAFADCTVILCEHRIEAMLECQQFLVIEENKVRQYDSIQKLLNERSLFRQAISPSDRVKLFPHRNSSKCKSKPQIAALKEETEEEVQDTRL

| SMILES | % Activation (ΔF508-CFTR [1]) [%] | EC50 (ΔF508-CFTR [1]) [nM] | % Activation (ΔF508-CFTR [2]) [%] | EC50 (ΔF508-CFTR [2]) [nM] |
| --- | --- | --- | --- | --- |
| COCCN(C)c1ccc(-c2cc(C(=O)O)nc3c2c(C(C)C)nn3-c2cccc(N3CCOCC3)c2)cn1 [compound 179] | 548 | 978 | 329.25 | 2820 |
| CC(C)c1nn(C2CCCCC2)c2nc(C(=O)O)cc(-c3ccc(N4CCC(C#N)CC4)nc3)c12 [compound 180, 4-[6-(4-cyanopiperidin-1-yl)pyridin-3-yl]-1-cyclohexyl-3-(propan-2-yl)-1H-pyrazolo[3,4-b]pyridine-6-carboxylic acid] | 524.85 | 687 | 249.55 | 972 |
| CC(C)c1nn(C2CCCCC2)c2nc(C(=O)O)cc(-c3ccc(N4CCC(F)(F)C4)nc3)c12 [compound 181, 1-cyclohexyl-4-[6-(3,3-difluoropyrrolidin-1-yl)pyridin-3-yl]-3-(propan-2-yl)-1H-pyrazolo[3,4-b]pyridine-6-carboxylic acid] | 397.95 | 1060 | 149.2 | 1220 |
| CN(c1ccc(-c2cc(C(=O)O)nc3c2c(C2CCC2)nn3-c2ccccc2)cn1)C1CCOCC1 [compound 183, 3-cyclobutyl-4-{6-[methyl(oxan-4-yl)amino]pyridin-3-yl}-1-phenyl-1H-pyrazolo[3,4-b]pyridine-6-carboxylic acid] | 469.58 | 460 | 252.9 | 528 |
| COCCN(C)c1ccc(-c2cc(C(=O)O)nc3c2c(C(C)C)nn3C2CCCCC2)cc1 [compound 184, 1-cyclohexyl-4-{4-[(2-methoxyethyl)(methyl)amino]phenyl}-3-(propan-2-yl)-1H-pyrazolo[3,4-b]pyridine-6-carboxylic acid] | 377.4 | 677 | 170.25 | 942 |
| CC(C)c1nn(C2CCCCC2)c2nc(C(=O)O)cc(-c3ccc(N4CCC(C#N)CC4)cc3)c12 [compound 185, 4-[4-(4-cyanopiperidin-1-yl)phenyl]-1-cyclohexyl-3-(propan-2-yl)-1H-pyrazolo[3,4-b]pyridine-6-carboxylic acid] | 478.6 | 520 | 237.8 | 1110 |
| O=C(O)c1cc(-c2ccc(N3CCOCC3)cc2)c2c(C3CCCO3)nn(-c3ccccc3)c2n1 (centres unmarked) [compound 186, 4-[4-(morpholin-4-yl)phenyl]-3-(oxolan-2-yl)-1-phenyl-1H-pyrazolo[3,4-b]pyridine-6-carboxylic acid] | 378.4 | 1260 | 168.7 | 1870 |
| CC(C)c1nn(-c2cccc(N3CCOCC3)c2)c2nc(C(=O)O)cc(-c3ccc(N(C)C4CCOCC4)nc3)c12 [compound 187, 4-{6-[methyl(oxan-4-yl)amino]pyridin-3-yl}-1-[3-(morpholin-4-yl)phenyl]-3-(propan-2-yl)-1H-pyrazolo[3,4-b]pyridine-6-carboxylic acid] | 522 | 565 | 367.4 | 674 |
| COCCN(C)c1ccc(-c2cc(C(=O)O)nc3c2c(C(C)C)nn3-c2cccc(N3CCOCC3)c2)cc1 [compound 188, 4-{4-[(2-methoxyethyl)(methyl)amino]phenyl}-1[3-(morpholin-4-yl)phenyl]-3-(propan-2-yl)-1H-pyrazolo[3,4-b]pyridine-6-carboxylic acid] | 432.9 | 499 | 282.4 | 636 |
| CC(C)c1nn(-c2cccc(N(C)C)c2)c2nc(C(=O)O)cc(-c3ccc(N(C)C4CCOCC4)nc3)c12 [compound 189, 1-[3-(dimethylamino)phenyl]-4-{6-[methyl(oxan-4-yl)amino]pyridin-3-yl}-3-(propan-2-yl)-1H-pyrazolo[3,4-b]pyridine-6-carboxylic acid] | 590.78 | 292 | 385.02 | 514 |
| COC1CCCN(c2cc(C(=O)O)nc3c2c(C(C)C)nn3-c2cccc(C)c2)C1 (centres unmarked) [compound 190, 4-(3-methoxypiperidin-1-yl)-1-(3-methylphenyl)-3-(propan-2-yl)-1H-pyrazolo[3,4-b]pyridine-6-carboxylic acid] | 301.85 | 634 | 136.12 | 929 |
| CN(C)c1ccc(-c2cc(C(=O)O)nc3c2c(C2CC2)nn3C2CCCCC2)cn1 [compound 193, 1-cyclohexyl-3-cyclopropyl-4-[6-(dimethylamino)pyridin-3-yl]-1H-pyrazolo[3,4-b]pyridine-6-carboxylic acid] | 402.32 | 425 | 194.98 | 633 |
| CC1CN(c2ccc(-c3cc(C(=O)O)nc4c3c(C(C)C)nn4C3CCCCC3)cn2)CC(C)O1 (centres unmarked) [compound 196, 1-cyclohexyl-4-[6-(2,6-dimethylmorpholin-4-yl)pyridin-3-yl]-3-(propan-2-yl)-1H-pyrazolo[3,4-b]pyridine-6-carboxylic acid] | 520.8 | 596 | 251.45 | 555 |
| CC(C)c1nn(C2CCCCC2)c2nc(C(=O)O)cc(-c3ccc(N4CCOC(C)(C)C4)nc3)c12 [compound 197, 1-cyclohexyl-4-[6-(2,2-dimethylmorpholin-4-yl)pyridin-3-yl]-3-(propan-2-yl)-1H-pyrazolo[3,4-b]pyridine-6-carboxylic acid] | 445.2 | 432 | 219.25 | 644 |
| Cc1nn(-c2ccccc2)c2nc(C(=O)O)cc(-c3ccc(N4CCCC(O)C4)cc3)c12 (centres unmarked) [compound 198, 4-[4-(3-hydroxypiperidin-1-yl)phenyl]-3-methyl-1-phenyl-1H-pyrazolo[3,4-b]pyridine-6-carboxylic acid] | 364 | 1010 | 220 | 1120 |
| CC(C)c1nn(-c2cccc(N(C)C)c2)c2nc(C(=O)O)cc(-c3cnc(N4CCC(C#N)CC4)nc3)c12 [compound 199, 4-[2-(4-cyanopiperidin-1-yl)pyrimidin-5-yl]-1-[3-(dimethylamino)phenyl]-3-(propan-2-yl)-1H-pyrazolo[3,4-b]pyridine-6-carboxylic acid] | 602.4 | 917 | 356.9 | 1220 |
| CC(C)c1nn(-c2cccc(N(C)C)c2)c2nc(C(=O)O)cc(-c3cnc(N(C)C4CCOCC4)nc3)c12 [compound 200, 1-[3-(dimethylamino)phenyl]-4-{2-[methyl(oxan-4-yl)amino]pyrimidin-5-yl}-3-(propan-2-yl)-1H-pyrazolo[3,4-b]pyridine-6-carboxylic acid] | 594.2 | 514 | 330.83 | 438 |
| Cc1cccc(-n2nc(C(C)C)c3c(N4CCC5(CC4)COC5)cc(C(=O)O)nc32)c1 [compound 202, 1-(3-methylphenyl)-4-(2-oxa-7-azaspiro[3.5]nonan-7-yl)-3-(propan-2-yl)-1H-pyrazolo[3,4-b]pyridine-6-carboxylic acid] | 309.3 | 609 | 136.8 | 795 |
| CC(C)c1nn(C2CCCCC2)c2nc(C(=O)O)cc(-c3ccc(N4CCC(C)(C#N)CC4)nc3)c12 [compound 203, 4-[6-(4-cyano-4-methylpiperidin-1-yl)pyridin-3-yl]-1-cyclohexyl-3-(propan-2-yl)-1H-pyrazolo[3,4-b]pyridine-6-carboxylic acid] | 361.75 | 756 | 162.5 | 843 |
| CC(C)c1nn(-c2cccc(N3CCOCC3)c2)c2nc(C(=O)O)cc(-c3ccc(N4CCC(C#N)CC4)cc3)c12 [compound 206, 4-[4-(4-cyanopiperidin-1-yl)phenyl]-1-[3-(morpholin-4-yl)phenyl]-3-(propan-2-yl)-1H-pyrazolo[3,4-b]pyridine-6-carboxylic acid] | 661.63 | 246 | 466.87 | 323 |
| CC(C)c1nn(-c2cccc(N(C)C)c2)c2nc(C(=O)O)cc(-c3ccc(N(C)C4CCOCC4)cc3)c12 [compound 207, 1-[3-(dimethylamino)phenyl]-4-{4-[methyl(oxan-4-yl)amino]phenyl}-3-(propan-2-yl)-1H-pyrazolo[3,4-b]pyridine-6-carboxylic acid] | 674.35 | 380 | 384.15 | 581 |
| CC(C)c1nn(-c2cccc(N3CCOCC3)c2)c2nc(C(=O)O)cc(-c3ccc(N(C)C4CCOCC4)cc3)c12 [compound 208, 4-{4-[methyl(oxan-4-yl)amino]phenyl}-1-[3-(morpholin-4-yl)phenyl]-3-(propan-2-yl)-1H-pyrazolo[3,4-b]pyridine-6-carboxylic acid] | 673.2 | 647 | 413.75 | 603 |
| COCCN(C)c1cc(C(=O)O)nc2c1c(C(C)C)nn2-c1cccc(C)c1 [compound 209, 4-[(2-methoxyethyl)(methyl)amino]-1-(3-methylphenyl)-3-(propan-2-yl)-1H-pyrazolo[3,4-b]pyridine-6-carboxylic acid] | 411.9 | 787 | 165.6 | 1360 |
